Source: ChEMBL document CHEMBL1145592, “Pleuromutilin derivatives having a purine ring. Part 1: new compounds with promising antibacterial activity against resistant Gram-positive pathogens” (2008)
Values after ≈ are worked out from the molar mass of the structure shown.

Legend:
Format in all cases: functional
Staphylococcus aureus [1] = experiment: Antibacterial activity against methicillin-susceptible Staphylococcus aureus Smith
Staphylococcus aureus [2] = experiment: Antibacterial activity against methicillin-resistant Staphylococcus aureus KMP9
Enterococcus faecium = experiment: Antibacterial activity against vancomycin-resistant Enterococcus faecium KU1778
Staphylococcus aureus [3] = experiment: Antibacterial activity against methicillin-susceptible Staphylococcus aureus Smith infected iv dosed mouse 1 hr after inoculation
Streptococcus pneumoniae [4] = experiment: Antibacterial activity against penicillin-susceptible Streptococcus pneumoniae ATCC 49619
Streptococcus pneumoniae [5] = experiment: Antibacterial activity against penicillin-resistant Streptococcus pneumoniae KT2524
Streptococcus pyogenes = experiment: Antibacterial activity against Streptococcus pyogenes ATCC 12344
Moraxella catarrhalis = experiment: Antibacterial activity against Moraxella catarrhalis K1209
Haemophilus influenzae = experiment: Antibacterial activity against Haemophilus influenzae TH13

Row | SMILES | MIC (Staphylococcus aureus [1]) | MIC (Staphylococcus aureus [2]) | MIC (Enterococcus faecium) | ED50 (Staphylococcus aureus [3]) | MIC (Streptococcus pneumoniae [4]) | MIC (Streptococcus pneumoniae [5]) | MIC (Streptococcus pyogenes) | MIC (Moraxella catarrhalis) | MIC (Haemophilus influenzae)
1 | C=C[C@]1(C)C[C@@H](OC(=O)CSC2CCN(C(=O)CCn3cnc4c(N5CCC(NC)C5)ncnc43)CC2)[C@]2(C)[C@H](C)CC[C@]3(CCC(=O)[C@@H]32)[C@@H](C)[C@@H]1O (stereo not given in full) | 0.063 µg/mL (≈ 0.084 µM) | 0.25 µg/mL (≈ 0.333 µM) | 0.032 µg/mL (≈ 0.0427 µM) | 1.61 mg/kg | 0.016 µg/mL (≈ 0.0213 µM) | 0.032 µg/mL (≈ 0.0427 µM) | 0.016 µg/mL (≈ 0.0213 µM) | 0.063 µg/mL (≈ 0.084 µM) | 2 µg/mL (≈ 2.67 µM)
2 | C=C[C@]1(C)C[C@@H](OC(=O)CSC2CCN(C(=O)CCn3cnc4c(N5CC[C@@H](N)C5)ncnc43)CC2)[C@]2(C)[C@H](C)CC[C@]3(CCC(=O)[C@@H]32)[C@@H](C)[C@@H]1O | 0.063 µg/mL (≈ 0.0856 µM) | 0.25 µg/mL (≈ 0.34 µM) | 0.063 µg/mL (≈ 0.0856 µM) | 1.01 mg/kg | 0.016 µg/mL (≈ 0.0217 µM) | 0.016 µg/mL (≈ 0.0217 µM) | 0.008 µg/mL (≈ 0.0109 µM) | 0.063 µg/mL (≈ 0.0856 µM) | 1 µg/mL (≈ 1.36 µM)
3 | C=C[C@]1(C)C[C@@H](OC(=O)CSC2CCN(C(=O)CCn3cnc4c(N5CCC(N(C)C)CC5)nc(N)nc43)CC2)[C@]2(C)[C@H](C)CC[C@]3(CCC(=O)[C@@H]32)[C@@H](C)[C@@H]1O | 0.25 µg/mL (≈ 0.315 µM) | 0.25 µg/mL (≈ 0.315 µM) | 0.125 µg/mL (≈ 0.158 µM) | 1.72 mg/kg | 0.063 µg/mL (≈ 0.0794 µM) | 0.063 µg/mL (≈ 0.0794 µM) | 0.032 µg/mL (≈ 0.0403 µM) | 0.063 µg/mL (≈ 0.0794 µM) | 2 µg/mL (≈ 2.52 µM)
4 | C=C[C@]1(C)C[C@@H](OC(=O)CSC2CCN(C(=O)CCn3cnc4c(N5CCCC(N)C5)ncnc43)CC2)[C@]2(C)[C@H](C)CC[C@]3(CCC(=O)[C@@H]32)[C@@H](C)[C@@H]1O (stereo not given in full) | 0.125 µg/mL (≈ 0.167 µM) | 0.125 µg/mL (≈ 0.167 µM) | 0.032 µg/mL (≈ 0.0427 µM) | 2.21 mg/kg | 0.016 µg/mL (≈ 0.0213 µM) | 0.032 µg/mL (≈ 0.0427 µM) | 0.016 µg/mL (≈ 0.0213 µM) | 0.032 µg/mL (≈ 0.0427 µM) | 1 µg/mL (≈ 1.33 µM)
5 | C=C[C@]1(C)C[C@@H](OC(=O)CSC2CCN(C(=O)CCn3cnc4c(N5CCC(N)C5)ncnc43)CC2)[C@]2(C)[C@H](C)CC[C@]3(CCC(=O)[C@@H]32)[C@@H](C)[C@@H]1O (stereo not given in full) | 0.063 µg/mL (≈ 0.0856 µM) | 0.125 µg/mL (≈ 0.17 µM) | 0.032 µg/mL (≈ 0.0435 µM) | – | 0.016 µg/mL (≈ 0.0217 µM) | 0.032 µg/mL (≈ 0.0435 µM) | 0.016 µg/mL (≈ 0.0217 µM) | 0.032 µg/mL (≈ 0.0435 µM) | 1 µg/mL (≈ 1.36 µM)
6 | C=C[C@]1(C)C[C@@H](OC(=O)CSC2CCN(C(=O)CCn3cnc4c(N5CCC(N)C5)nc(N)nc43)CC2)[C@]2(C)[C@H](C)CC[C@]3(CCC(=O)[C@@H]32)[C@@H](C)[C@@H]1O (stereo not given in full) | 0.5 µg/mL (≈ 0.666 µM) | 1 µg/mL (≈ 1.33 µM) | 0.125 µg/mL (≈ 0.166 µM) | 3.05 mg/kg | 0.125 µg/mL (≈ 0.166 µM) | 0.125 µg/mL (≈ 0.166 µM) | 0.063 µg/mL (≈ 0.0839 µM) | 0.25 µg/mL (≈ 0.333 µM) | 1 µg/mL (≈ 1.33 µM)
7 | C=C[C@]1(C)C[C@@H](OC(=O)CSC2CCN(C(=O)CCn3cnc4c(N5CCC(CN)C5)nc(N)nc43)CC2)[C@]2(C)[C@H](C)CC[C@]3(CCC(=O)[C@@H]32)[C@@H](C)[C@@H]1O (stereo not given in full) | 0.5 µg/mL (≈ 0.654 µM) | 2 µg/mL (≈ 2.61 µM) | 0.5 µg/mL (≈ 0.654 µM) | 2.84 mg/kg | 0.063 µg/mL (≈ 0.0823 µM) | 0.125 µg/mL (≈ 0.163 µM) | 0.032 µg/mL (≈ 0.0418 µM) | 0.125 µg/mL (≈ 0.163 µM) | 4 µg/mL (≈ 5.23 µM)
8 | C=C[C@]1(C)C[C@@H](OC(=O)CSC2CCN(C(=O)CCn3cnc4c(N5CCC(NC)C5)nc(N)nc43)CC2)[C@]2(C)[C@H](C)CC[C@]3(CCC(=O)[C@@H]32)[C@@H](C)[C@@H]1O (stereo not given in full) | 0.25 µg/mL (≈ 0.327 µM) | 1 µg/mL (≈ 1.31 µM) | 0.25 µg/mL (≈ 0.327 µM) | 1.72 mg/kg | 0.063 µg/mL (≈ 0.0823 µM) | 0.063 µg/mL (≈ 0.0823 µM) | 0.032 µg/mL (≈ 0.0418 µM) | 0.125 µg/mL (≈ 0.163 µM) | 1 µg/mL (≈ 1.31 µM)
9 | C=C[C@]1(C)C[C@@H](OC(=O)CSC2CCN(C(=O)CCn3cnc4c(N5CCNCC5)ncnc43)CC2)[C@]2(C)[C@H](C)CC[C@]3(CCC(=O)[C@@H]32)[C@@H](C)[C@@H]1O | 0.063 µg/mL (≈ 0.0856 µM) | 0.063 µg/mL (≈ 0.0856 µM) | 0.032 µg/mL (≈ 0.0435 µM) | 2.94 mg/kg | 0.032 µg/mL (≈ 0.0435 µM) | 0.032 µg/mL (≈ 0.0435 µM) | 0.016 µg/mL (≈ 0.0217 µM) | 0.032 µg/mL (≈ 0.0435 µM) | 1 µg/mL (≈ 1.36 µM)
10 | CN[C@H](CC(C)C)C(=O)N[C@H]1C(=O)N[C@@H](CC(N)=O)C(=O)N[C@H]2C(=O)N[C@H]3C(=O)N[C@H](C(=O)N[C@H](C(=O)O)c4cc(O)cc(O)c4-c4cc3ccc4O)[C@H](O)c3ccc(c(Cl)c3)Oc3cc2cc(c3O[C@@H]2O[C@H](CO)[C@@H](O)[C@H](O)[C@H]2O[C@H]2C[C@](C)(N)[C@H](O)[C@H](C)O2)Oc2ccc(cc2Cl)[C@H]1O [VANCOMYCIN] | – | – | > 128 µg/mL | 0.88 mg/kg | 0.25 µg/mL (≈ 0.173 µM) | 0.5 µg/mL (≈ 0.345 µM) | – | 64 µg/mL (≈ 44.2 µM) | > 128 µg/mL
11 | C=C[C@]1(C)C[C@@H](OC(=O)CSC2CCN(C(=O)CCn3cnc4c(N5CCC(NC)CC5)ncnc43)CC2)[C@]2(C)[C@H](C)CC[C@]3(CCC(=O)[C@@H]32)[C@@H](C)[C@@H]1O | 0.125 µg/mL (≈ 0.164 µM) | 0.25 µg/mL (≈ 0.327 µM) | 0.063 µg/mL (≈ 0.0825 µM) | 2.21 mg/kg | 0.063 µg/mL (≈ 0.0825 µM) | 0.063 µg/mL (≈ 0.0825 µM) | 0.032 µg/mL (≈ 0.0419 µM) | 0.125 µg/mL (≈ 0.164 µM) | 2 µg/mL (≈ 2.62 µM)
